Results from publication PMC8621101, “Inhibition of XPO-1 Mediated Nuclear Export through the Michael-Acceptor Character of Chalcones” (Pharmaceuticals, 2021).

Columns and labels:
[1] = biological target: T1, XPO1^C528S (Jurkat XPO1^C528S) (Homo sapiens, UniProt O14980, C528S); assay: RanBP1 immunofluorescence (XPO1-mediated nuclear export) in mutant XPO1^C528S Jurkat cells; assay type: cell-based; conditions: for Subcellular localization of RanBP1, mutant XPO1^C528S Jurkat: compound at 4 μM; for Subcellular localization of RanBP1, mutant XPO1^C528S Jurkat / IC50: 3 h; for XPO1 inhibitory activity against Jurkat XPO1^C528S, in words / IC50: mutant XPO1^C528S Jurkat; for IC50: nuclear export of RanBP1 cargo, mean ± SD of two independent experiments, read-out: IC50 XPO1 inhibition Jurkat XPO1^C528S
T1 construct: CRISPR/Cas9 genome editing of the Jurkat cell line was performed as in Neggers et al. [43] to generate a XPO1^C528S mutant cell line; endogenous in cells; host or cells: Jurkat cells genome-edited by CRISPR/Cas9 at the XPO1 locus (XPO1^C528S)
T1 sequence (O14980 whole entry C528S): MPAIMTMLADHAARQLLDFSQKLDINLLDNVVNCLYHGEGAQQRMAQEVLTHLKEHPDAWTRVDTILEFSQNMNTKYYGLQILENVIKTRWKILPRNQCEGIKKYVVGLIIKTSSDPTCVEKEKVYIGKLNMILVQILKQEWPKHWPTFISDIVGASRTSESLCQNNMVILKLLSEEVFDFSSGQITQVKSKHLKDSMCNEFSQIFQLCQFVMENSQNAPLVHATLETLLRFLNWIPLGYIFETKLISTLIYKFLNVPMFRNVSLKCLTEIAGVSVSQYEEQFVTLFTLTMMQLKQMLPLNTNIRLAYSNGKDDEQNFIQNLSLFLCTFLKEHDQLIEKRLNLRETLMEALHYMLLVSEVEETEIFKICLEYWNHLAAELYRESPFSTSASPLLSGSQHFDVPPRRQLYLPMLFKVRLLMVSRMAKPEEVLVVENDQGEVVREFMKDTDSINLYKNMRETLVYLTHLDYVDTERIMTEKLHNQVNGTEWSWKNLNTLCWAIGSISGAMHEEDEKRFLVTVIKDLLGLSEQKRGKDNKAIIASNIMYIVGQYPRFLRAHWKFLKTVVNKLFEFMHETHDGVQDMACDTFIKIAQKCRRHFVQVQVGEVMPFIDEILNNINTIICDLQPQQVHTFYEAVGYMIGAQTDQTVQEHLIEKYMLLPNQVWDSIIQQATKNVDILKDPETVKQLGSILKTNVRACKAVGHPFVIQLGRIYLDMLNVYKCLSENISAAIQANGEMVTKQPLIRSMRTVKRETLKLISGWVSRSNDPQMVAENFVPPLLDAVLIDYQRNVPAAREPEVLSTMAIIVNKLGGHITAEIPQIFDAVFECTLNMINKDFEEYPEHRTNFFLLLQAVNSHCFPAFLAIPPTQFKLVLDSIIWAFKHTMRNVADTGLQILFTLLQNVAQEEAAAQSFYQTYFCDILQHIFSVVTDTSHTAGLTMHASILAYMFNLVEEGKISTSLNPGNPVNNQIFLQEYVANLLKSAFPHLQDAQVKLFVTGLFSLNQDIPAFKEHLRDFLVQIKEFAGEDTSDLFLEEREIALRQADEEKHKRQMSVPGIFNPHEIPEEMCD
Description: The effect of the mutation on the activity of the inhibitors was assessed by the visualization of the subcellular localization of the XPO1 cargo RanBP1.
Stably transfected HeLa NLSSV40-AcGFP-NESPKI were cultured as described in Vercruysse et al.
Cells were harvested at 400× g, washed in PBS and then transferred into an 8-well µ-Slide (Ibidi) pretreated with 0.1% (w/v) poly-L-lysine (Sigma). Cells were allowed to adhere to the slides and then subsequently fixed (4% PFA in PBS), washed and permeabilized (0.2% Triton X-100 in PBS). Further immunofluorescence staining was then performed according to standard procedures. Employed antibodies were rabbit anti-RanBP1 (ab97659, Abcam, Cambridge, UK) at a 1:500 dilution and secondary Alexa Fluor 488 goat anti-rabbit antibody (A11008, Invitrogen, ThermoFisher Scientific). Cell nuclei were counterstained with DAPI, and the samples were imaged by confocal microscopy on a Leica TCS SP5 confocal microscope (Leica Microsystems, Weitzlar, Germany), employing a HCX PL APO 63× (NA 1.2) water immersion objective. Subsequently, fluorescence was read on an ArrayScan XTI High Content Reader (Thermo Fisher Scientific, Waltham, MA, USA). Nuclear and cytoplasmic compartments were segmented, and their average pixel intensities in the green channel were quantitated similarly as for the XPO1 phenotypic reporter assay.

[2] = GSH reactivity assay (HPLC, DTNB quench); assay type: physicochemical; conditions: 500 µM compound, 5 mM GSH, 37 °C; for Reaction with GSH (hetero-Michael addition), qualitative: PBS pH 7.4 with EDTA:DMSO 1:1; for Reversibility of GSH adducts (retro-Michael), qualitative: longer incubation
Description: In order to determine if these chalcones could react with thiol groups through a hetero-Michael addition reaction, a few selected compounds (9, 10, 13 and 18) were incubated with glutathione (GSH). After different incubation times, the reactions were quenched by adding 5,5′-dithiobis(2-nitrobenzoic acid) (DTNB, Ellman´s reagent) (1:1 ratio with respect to the initial concentration of GSH). The course of the reaction was followed by HPLC, adapting reported procedures. […] Thus, although this assay is only qualitative, the tendency observed among these chalcones nicely fits the reactivity described for α-X-2´3,4,4´-tetramethylchalcones.
A 500 µM sample of the tested compound was incubated with 5 mM reduced L-glutathione for 24 h at 37 °C with a final volume of 200 μL. As a solvent system, 20 mM PBS buffer pH 7.4 with 2 mM EDTA:DMSO (1:1) was used. To perform the assay, stock solutions of 20 mM of the chalcones (9, 10, 13 and 18) and 15 mM of reduced L-glutathione were freshly prepared for every experiment and then diluted properly to give the final electrophile:nucleophile ratio (1:10). A 5 mM solution of 5,5′-dithiobis(2-nitrobenzoic acid) (DTNB) was prepared in the same solvent system to quench the reaction. After different time points (10 min, 1 h, 4 h and 24 h), an aliquot of 20 μL of the incubation mixture was quenched by adding 20 μL of the DTNB stock solution, mixed thoroughly, and then analyzed by HPLC. HPLC analysis was performed in Agilent 1120 compact LC, column ACE 5 C18-300 (15 cm × 4.6 mm); UV detection was performed at λ = 254 nm. Solvents used were acetonitrile for bottle A and H2O (containing 0.05% TFA) for bottle B, and the flow rate was 1mL/min. The gradients used were: (A) incubations with chalcone 9: from 10% to 80% of solvent A in 10 min; (B) incubations with chalcones 10 and 18: from 10% to 100% of solvent A in 10 min. The new peaks were analysed by LC-MS. As controls, a 500 μM solution of the α,β-unsaturated compound was also analysed, and a 5 mM reduced L-glutathione solution was quenched by adding DNTB at the same time points. In general, after 6 h of incubation, no GSH was detected.

[3] = test system: panel of cancer cell lines; assay: Antiproliferative activity, panel of cancer cell lines; assay type: cell-based; conditions: for Fold less potent than KPT-330 (antiproliferative IC50): all cell lines tested; for Antiproliferative activity, in words: panel of cancer cell lines
Description: Adherent cell lines HCT-116, NCI-H460 and Hap-1 cells were seeded at a density between 500 and 1500 cells per well in 384-well tissue culture plates (Greiner). After overnight incubation, cells were treated with different concentrations of the test compounds. Suspension cell lines HL-60, K-562, Z-138 and DND-41 were seeded at densities ranging from 2500 to 5500 cells per well in 384-well culture plates containing the test compounds at the same concentration points.

O=C(/C=C/c1cncnc1)c1ccc2ccccc2c1 [Compound 9, (E)-1-(Naphthalen-2-yl)-3-(pyrimidin-5-yl)prop-2-en-1-one]
Subcellular localization of RanBP1, mutant XPO1^C528S Jurkat [1]: its nuclear export was not inhibited | XPO1 inhibitory activity against Jurkat XPO1^C528S, in words [1]: lost their inhibitory activity | IC50 [1]: > 5 µM | Reaction with GSH (hetero-Michael addition), qualitative [2]: quickly reacted with GSH | Reversibility of GSH adducts (retro-Michael), qualitative [2]: underwent a retro-Michael addition reaction | Fold less potent than KPT-330 (antiproliferative IC50) [3]: 5- to 30 fold | Antiproliferative activity, in words [3]: single digit µM IC50 values

COc1cc(OC)cc(C(=O)/C=C/c2cncnc2)c1 [Compound 10, (E)-1-(3′,5′-Dimethoxyphenyl)-3-(pyrimidin-5′’-yl)prop-2-en-1-one]
Subcellular localization of RanBP1, mutant XPO1^C528S Jurkat [1]: its nuclear export was not inhibited | XPO1 inhibitory activity against Jurkat XPO1^C528S, in words [1]: lost their inhibitory activity | IC50 [1]: > 5 µM | Reaction with GSH (hetero-Michael addition), qualitative [2]: quickly reacted with GSH | Reversibility of GSH adducts (retro-Michael), qualitative [2]: underwent a retro-Michael addition reaction | Fold less potent than KPT-330 (antiproliferative IC50) [3]: 5- to 30 fold | Antiproliferative activity, in words [3]: single digit µM IC50 values
